What all share (type): in vivo, mouse
In assay [1] the test system is colitis in Scid mice injected with cells of IL-10 deficient Balb/c mice. As to the kind of experiment: Therapeutic effect on inflammatory bowel disease: colon weight in cell-transfer colitis mice fed experimental diet. More on the design: Colon weight Mean: unit not given here. Conditions: three weeks after cell transfer. The method, then: Balb/c background IL-10 deficient mice were established from C57BL/6 background IL-10 deficient mice by back-crossing for seventh generations. […] Spleen, mesenteric lymph nodes and sacral lymph nodes were collected from the IL-10 gene-deficient Balb/c mice (male) which had developed the colitis detected by observing the diarrhea symptoms. After preparing single cell suspensions, the cells at about 1×10^7 were injected intraperitoneally to Scid mice which were immunodeficiency mice (hereinafter the Scid mouse injected IP was referred to as an “experiment mouse”). Subsequently, a chow was changed to an experimental diet. At a time point three weeks after cell transfer, the mice were killed, the colon was collected, the intestinal contents were washed out, and its weight was measured. A percentage of inhibiting a weight gain of the colon was calculated by the following formula. Percentage of inhibiting a weight gain of colon=[1−(Colon weight in target group−Colon weight in cell transfer group)/(Colon weight in standard chow group−Colon weight in cell transfer group)]×100(%)
An amino acid mixture A is composed of the following amino acids (% by weight is represented in terms of free amino acid).

A further assay relates to TNF-α mRNA. Briefly: Inhibitory effect on TNF-α production: quantitative RT-PCR of colon TNF-α mRNA. The settings on record: colon after three weeks. The method, then:
(§1) The experimental diet obtained by mixing the amino acids shown in Table 6 with the standard chow was given to the experiment mice, and after three weeks, the colon was removed. A colon sample was homogenized with 500 μL of Isogen (Nippon Gene). The homogenate mixed with 100 μL, of chloroform was centrifuged at 15,000 rpm at 4° C. and an aqueous layer was collected. An equivalent amount of 2-propanol was added thereto, which was then centrifuged at 15,000 rpm at 4° C. A resulting pellet was washed with 70% (v/v) ethanol, dried in air and dissolved in water treated with DEPC.
All reagents used were from Invitrogen. 0.5 μg Of total RNA and 0.5 μg of oligo (dT) were dissolved in 12 μL of DEPC-treated water, heated at 70° C. for 10 minutes, and cooled on ice for one minute. Subsequently, 4 μL of 5×1st strand buffer, 1 μL of 10 mM dNTP mix and 2 μL of 100 mM DTT were added thereto. The mixture was reacted at 42° C. for 5 minutes. 1 μL (200 U) of SuperScriptII was added, and the mixture was reacted at 42° C. for 50 minutes and 70° C. for 15 minutes.
(§2) A gene expression assay based on PCR was performed using SYBR Green PCR Master Mix (Applied Biosystems) and ABI PRISM 7700 System. SYBR Green PCR Master Mix comprises SYBR Green and heat resistant DNA polymerase, and detects fluorescence generated by specifically binding SYBR Green to a double strand DNA amplified by PCR using ABI PRISM 7700 System. Gene expression amounts of the samples can be compared by comparing the numbers of PCR cycles at which a significant fluorescence signal is detected for the first time. The cDNA corresponding to 10 ng of total RNA was used as a template of the quantitative PCR, and n=2 or more per sample of measurements were performed. A forward primer and a reverse primer at each 7.5 pmol of each gene were added to 7.5 μL of SYBR Green PCR Master Mix (Applied Biosystems), and the total volume was made to be 15 μL with water. The PCR was performed by 40 cycles of the reaction at 95° C. for 10 seconds, 60° C. for 30 seconds and 72° C. for 30 seconds after reacting at 95° C. for 10 minutes. The sequences of the primers used for the quantitative RT-PCR are as follows.
An inhibitory rate of TNF-α mRNA expression was calculated from the following formula. Inhibitory rate of TNF-α mRNA expression=[1−Relative amount of TNF-α mRNA expression in target group−Relative amount of TNF-α mRNA expression in cell transfer group)/(Relative amount of TNF-α mRNA expression in standard chow group−Relative amount of TNF-α mRNA expression in cell transfer group)]×100(%)

Another assay relates to Reg3γ mRNA. Briefly: Quantitative RT-PCR of colon Reg3γ mRNA. The settings on record: 5% in standard chow, colon after three weeks. The protocol:
as §1
(§3) All reagents used were from Invitrogen. […]
as §2, with “A forward primer and a reverse primer at each 7.5 pmol of each gene were added to 7.5 μL of SYBR Green PCR Master Mix (Applied Biosystems), and the total volume was made to be 15 μL with water. The PCR was performed by 40 cycles of the reaction at 95° C. for 10 seconds, 60° C. for 30 seconds and 72° C. for 30 seconds after reacting at 95° C. for 10 minutes.” left out, “follows. […]” for “follows.”

A further assay concerns Groα mRNA. As to the kind of experiment: Quantitative RT-PCR of colon Groα mRNA. Conditions: 5% in standard chow, colon after three weeks. The protocol: as §1, §3
as §2, with “A forward primer and a reverse primer at each 7.5 pmol of each gene were added to 7.5 μL of SYBR Green PCR Master Mix (Applied Biosystems), and the total volume was made to be 15 μL with water. The PCR was performed by 40 cycles of the reaction at 95° C. for 10 seconds, 60° C. for 30 seconds and 72° C. for 30 seconds after reacting at 95° C. for 10 minutes.” left out, “follows. […]” for “follows.”

Where [2] appears, read: Mus musculus, po, 504 h, 5% in standard chow, read-out: Rate of inhibiting weight gain of colon (%).

9 compounds from patent publication US8168669B2, “Therapeutic agent for inflammatory bowel disease and TNF-α production inhibitor” (Ajinomoto Co., Inc., priority 2005, dated 2012) can be followed below.

As for `NC(=O)CC[C@H](N)C(=O)O` [Example 1, glutamine], in assay [1] (5% in standard chow), the “Colon weight Mean” value was found to be 530.5. In assay [1] (setting [2]), the inhibition in vivo at 5 % is 22.5%.
For the compound `NCCCC[C@H](N)C(=O)O` [Example 2, lysine], in assay [1] (5% in standard chow), the “Colon weight Mean” value is given as 392.8. The inhibition in vivo at 5 % in assay [1] (setting [2]) came to 48.5%.
Take `N[C@@H](Cc1c[nH]cn1)C(=O)O` [Example 3, histidine]: the “Colon weight Mean” value in assay [1] (5% in standard chow) amounted to 429.0. Also, the inhibition in vivo at 5 % in assay [1] (setting [2]) came out at 37.8%. Further, in the assay with TNF-α mRNA (5% in standard chow), the “Inhibitory rate of TNF-α mRNA expression (%)” value was determined as 54%. In addition, in the assay on Reg3γ mRNA, the “Inhibitory rate of Reg3γ mRNA Expression (%)” value was determined as 84%. In addition, in the assay on Groα mRNA, the “Inhibitory rate of Groα mRNA Expression (%)” value was determined as 70%.
As to `N[C@@H](CS)C(=O)O` [Example 4, cysteine], the inhibition in vivo at 5 % in assay [1] (setting [2]) was 42.1%.
On to `NCC(=O)O` [Example 5, glycine], for which, in assay [1] (5% in standard chow), the “Colon weight Mean” value was determined as 437.1 and the “Rate of inhibiting weight gain of colon (%)” value is 37.4%.
As to `N[C@@H](Cc1c[nH]c2ccccc12)C(=O)O` [Example 6, tryptophan], the “Colon weight Mean” value in assay [1] (2% in standard chow) was determined as 425.6. In assay [1] (Mus musculus, po, 504 h, 2% in standard chow, read-out: Rate of inhibiting weight gain of colon (%)), the inhibition in vivo at 2 % came out at 41.9%. Also, in assay [1] (setting [2]), the inhibition in vivo at 5 % was found to be 92.7%. Besides, the “Inhibitory rate of TNF-α mRNA expression (%)” value is recorded as 33% in the assay on TNF-α mRNA (2% in standard chow) and 49% with TNF-α mRNA (5% in standard chow).
For the compound `CSCC[C@H](N)C(=O)O` [Example 7, methionine], the “Colon weight Mean” value in assay [1] (5% in standard chow) stood at 307.7. Also, the inhibition in vivo at 5 % in assay [1] (setting [2]) is 73.1%.
In the case of `N[C@@H](Cc1ccccc1)C(=O)O` [Example 12, phenylalanine], the “Colon weight Mean” value in assay [1] (5% in standard chow) is on record as 392.8. Also, in assay [1] (setting [2]), the inhibition in vivo at 5 % is 48.5%. In the assay on TNF-α mRNA (5% in standard chow), the “Inhibitory rate of TNF-α mRNA expression (%)” value is given as 84%.
Consider `C[C@@H](O)[C@H](N)C(=O)O` [Example 13, threonine], for which the “Colon weight Mean” value in assay [1] (5% in standard chow) was found to be 468.2. For the same compound, in assay [1] (setting [2]), the inhibition in vivo at 5 % stood at 28.8%.
